Key:
Test in all cases: relative viability (nuclei count vs DMSO), 5 days (fraction); higher = more cells survive
[1] = compound: C1=CC2=C(C=C(C(=C2N=C1)O)N=NC3=CC4=C(C=C3)C=C(C=C4)S(=O)(=O)O)S(=O)(=O)O + CC(=O)Nc1cccc(-n2c(=O)n(C3CC3)c(=O)c3c(Nc4ccc(I)cc4F)n(C)c(=O)c(C)c32)c1 [Trametinib] (partner 0.02 µM)
Summary of the method: (§1)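 Relative viability equals treated-well nuclei counts divided by vehicle-well nuclei counts. Counts came from 4× images of lung cancer cell lines grown in 1536-well plates for 5 days after pin-tool dosing on the day after seeding. Dosing used one drug alone or a fixed anchor-drug dose plus five library-drug doses (not always all listed) in √10 steps, and values are medians of duplicate plates.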

[2] = compound: C1=CC2=C(C=C(C(=C2N=C1)O)N=NC3=CC4=C(C=C3)C=C(C=C4)S(=O)(=O)O)S(=O)(=O)O + Cc1nc(Nc2ncc(C(=O)Nc3c(C)cccc3Cl)s2)cc(N2CCN(CCO)CC2)n1 [Dasatinib] (partner 0.075 µM)
Summary of the method: as §1

AT-7519 + OSI-027 = compound: O=C(NC1CCNCC1)c1n[nH]cc1NC(=O)c1c(Cl)cccc1Cl [AT-7519] + COc1cccc2cc(-c3nc([C@H]4CC[C@H](C(=O)O)CC4)n4ncnc(N)c34)[nH]c12 [OSI-027] (partner 0.5 µM)
Summary of the method: as §1

AT-7519 + Pictilisib = compound: O=C(NC1CCNCC1)c1n[nH]cc1NC(=O)c1c(Cl)cccc1Cl [AT-7519] + CS(=O)(=O)N1CCN(Cc2cc3nc(-c4cccc5[nH]ncc45)nc(N4CCOCC4)c3s2)CC1 [Pictilisib] (partner 1 µM)
Summary of the method: as §1

Which relative viability ([1]; first compound 0.08 µM) does the source give for UMC-11 here?
The relative viability was 0.74.

And the relative viability ([1]; first compound 0.253 µM)?
The relative viability was 0.777.

And the relative viability ([1]; first compound 0.8 µM)?
Its relative viability is 0.658.

What about the relative viability ([1]; first compound 2.53 µM) of the same cell line?
The relative viability was 0.728.

What about the relative viability ([1]; first compound 8 µM) of the same cell line?
Its relative viability is 0.766.

What about the relative viability ([2]; first compound 0.08 µM) of the same cell line?
The relative viability was 0.493.

What about the relative viability ([2]; first compound 0.253 µM) of the same cell line?
Its relative viability is 0.454.

What about the relative viability ([2]; first compound 0.8 µM) of the same cell line?
Its relative viability is 0.456.

And the relative viability ([2]; first compound 2.53 µM)?
The relative viability was 0.439.

And the relative viability ([2]; first compound 8 µM)?
Its relative viability is 0.441.

What about the relative viability (AT-7519 + OSI-027; first compound 0.01 µM) of the same cell line?
The relative viability was 0.442.

And the relative viability (AT-7519 + OSI-027; first compound 0.03162 µM)?
Its relative viability is 0.432.

And the relative viability (AT-7519 + OSI-027; first compound 0.3162 µM)?
Its relative viability is 0.404.

And the relative viability (AT-7519 + OSI-027; first compound 1 µM)?
Its relative viability is 0.27.

What about the relative viability (AT-7519 + Pictilisib; first compound 0.01 µM) of the same cell line?
Its relative viability is 0.787.

And the relative viability (AT-7519 + Pictilisib; first compound 0.03162 µM)?
The relative viability was 0.814.

And the relative viability (AT-7519 + Pictilisib; first compound 0.3162 µM)?
The relative viability was 0.417.

And the relative viability (AT-7519 + Pictilisib; first compound 1 µM)?
Its relative viability is 0.249.
